In one assay the target is Fms kinase (Homo sapiens, UniProt P07333). The assay is described as follows: Fms kinase biochemical activity assay (AlphaScreen, biotin-(E4Y)10 phosphorylation). To be noted: 100 μM ATP; read-out: Biochemical Inhibition IC50 Fms. In a few lines:
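Fms kinase (1 ng/well) phosphorylating 30 nM biotin-(E4Y)10 with 100 μM ATP in 25 mM Hepes pH 7.5, MgCl2/MnCl2, 5% DMSO, 20 min at 30 °C. Phosphotyrosine detected by AlphaScreen streptavidin donor and PY20 acceptor beads; IC50 from signal versus compound concentration.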
For orientation: In Alpha technology, singlet oxygen from a donor bead excites a nearby acceptor bead.

The next assay deals with CYP2D6 (Homo sapiens, UniProt P10635). The experiment in a line: CYP2D6 inhibition (fluorescent substrate AMMC). The format is in vitro ADME. To be noted: read-out: Cyp IC50 2D6. In short, it runs like this: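 Test compounds, 10-point 1:1 serial dilutions in NADPH-regenerating cofactor mix, were preincubated 10 min at 37° C before recombinant enzyme and fluorogenic substrate reactions at 37° C (CYP1A2 15 min; CYP2C9 45 min; CYP2C19, 2D6 30 min). Product fluorescence was read at 409 ex with 460 em (1A2, 2C19) or 530 em (2C9, 2D6), and IC50 fitted from signal versus concentration.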
Chain of CYP2D6 (P10635 whole entry): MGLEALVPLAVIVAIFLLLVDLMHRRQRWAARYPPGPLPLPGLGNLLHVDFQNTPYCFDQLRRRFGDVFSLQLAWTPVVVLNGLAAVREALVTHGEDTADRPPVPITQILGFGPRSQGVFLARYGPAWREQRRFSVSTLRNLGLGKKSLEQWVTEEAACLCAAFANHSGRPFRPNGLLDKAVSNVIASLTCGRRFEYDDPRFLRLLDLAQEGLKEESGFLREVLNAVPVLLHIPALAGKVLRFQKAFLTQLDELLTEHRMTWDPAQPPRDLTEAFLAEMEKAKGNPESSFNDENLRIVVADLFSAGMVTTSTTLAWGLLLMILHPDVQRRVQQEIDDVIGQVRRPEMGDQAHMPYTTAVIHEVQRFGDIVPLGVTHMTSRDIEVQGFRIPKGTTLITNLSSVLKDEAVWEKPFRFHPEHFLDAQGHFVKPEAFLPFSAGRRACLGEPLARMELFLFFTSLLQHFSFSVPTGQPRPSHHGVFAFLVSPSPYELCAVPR

Where only a bound is given, the exact number is not on record here.

Chain of Fms kinase (P07333 20-972): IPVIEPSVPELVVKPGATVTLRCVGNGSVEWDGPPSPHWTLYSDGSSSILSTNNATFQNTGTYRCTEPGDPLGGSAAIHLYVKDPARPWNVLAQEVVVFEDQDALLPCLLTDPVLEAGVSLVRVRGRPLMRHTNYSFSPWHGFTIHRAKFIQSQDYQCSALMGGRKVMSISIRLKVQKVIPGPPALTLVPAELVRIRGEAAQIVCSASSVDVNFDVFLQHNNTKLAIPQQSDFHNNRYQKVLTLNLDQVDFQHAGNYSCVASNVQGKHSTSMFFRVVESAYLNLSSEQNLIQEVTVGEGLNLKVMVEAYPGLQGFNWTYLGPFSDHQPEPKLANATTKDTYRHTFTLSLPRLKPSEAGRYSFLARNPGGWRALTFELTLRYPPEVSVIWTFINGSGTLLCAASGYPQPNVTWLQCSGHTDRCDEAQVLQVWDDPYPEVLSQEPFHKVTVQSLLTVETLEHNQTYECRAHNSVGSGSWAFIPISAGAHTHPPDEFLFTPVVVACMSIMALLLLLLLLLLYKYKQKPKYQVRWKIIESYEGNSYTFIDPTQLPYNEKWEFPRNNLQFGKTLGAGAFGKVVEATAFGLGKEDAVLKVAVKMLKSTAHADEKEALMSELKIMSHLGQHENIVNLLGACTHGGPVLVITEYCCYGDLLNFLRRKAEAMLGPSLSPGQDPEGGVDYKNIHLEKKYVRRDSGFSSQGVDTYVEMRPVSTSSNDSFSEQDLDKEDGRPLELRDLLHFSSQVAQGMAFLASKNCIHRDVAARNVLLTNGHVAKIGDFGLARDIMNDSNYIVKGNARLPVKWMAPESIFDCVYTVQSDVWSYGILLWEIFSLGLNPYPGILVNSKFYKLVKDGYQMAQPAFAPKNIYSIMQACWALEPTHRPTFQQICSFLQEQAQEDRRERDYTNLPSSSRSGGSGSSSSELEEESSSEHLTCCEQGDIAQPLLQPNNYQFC

Regarding `Clc1cnc2[nH]cc(Cc3cnc(NC4CCCCC4)nc3)c2c1` [Compound P-3001, [5-(5-chloro-1H-pyrrolo[2,3-b]pyridin-3-ylmethyl)-pyrimidin-2-yl]-cyclohexyl-amine], the figures for the IC50 on Fms kinase and at CYP2D6 were under 0.1 µM and over 10 µM, respectively.

As for `FC1(F)CCC(Nc2ncc(Cc3c[nH]c4ncc(Cl)cc34)cn2)CC1` [Compound P-3004], the IC50 at Fms kinase was under 0.01 µM; at CYP2D6, over 10 µM.

For the compound `Clc1cnc2[nH]cc(Cc3cnc(NC4CCCCCC4)nc3)c2c1` [Compound P-3006, [5-(5-Chloro-1H-pyrrolo[2,3-b]pyridin-3-ylmethyl)-pyrimidin-2-yl]-cycloheptyl-amine], the concentration for half-maximal inhibition (IC50) on Fms kinase is under 0.01 µM; on CYP2D6, over 10 µM.

With `Cc1cnc2[nH]cc(Cc3cnc(Nc4ccc(C(F)(F)F)nc4)nc3)c2c1` [Compound P-3018, [5-(5-Methyl-1H-pyrrolo[2,3-b]pyridin-3-ylmethyl)-pyrimidin-2-yl]-(6-trifluoromethyl-pyridin-3-yl)-amine], the values for the IC50 at Fms kinase and on CYP2D6 were under 0.01 µM and over 10 µM, respectively.

On to `COc1ccc(Nc2ccc(Cc3c[nH]c4ncc(C)cc34)c(F)n2)cn1` [Compound P-3019, [6-fluoro-5-(5-methyl-1H-pyrrolo[2,3-b]pyridin-3-ylmethyl)-pyridin-2-yl]-(6-methoxy-pyridin-3-yl)-amine], for which the IC50 at Fms kinase was under 0.01 µM; at CYP2D6, over 10 µM.

With `CCOc1ccc(Nc2ccc(Cc3c[nH]c4ncc(C)cc34)c(F)n2)cn1` [Compound P-3039, (6-ethoxy-pyridin-3-yl)-[6-fluoro-5-(5-methyl-1H-pyrrolo[2,3-b]pyridin-3-ylmethyl)-pyridin-2-yl]-amine], the values for the IC50 at Fms kinase and at CYP2D6 were under 0.01 µM and over 10 µM, respectively.

Turning to `COc1ccc(Nc2ccc(C(=O)c3c[nH]c4ncc(C)cc34)c(F)n2)cn1` [Compound P-3040, [2-Fluoro-6-(6-methoxy-pyridin-3-ylamino)-pyridin-3-yl]-(5-methyl-1H-pyrrolo[2,3-b]pyridin-3-yl)-methanone], the IC50 was under 0.1 µM at Fms kinase and over 10 µM at CYP2D6.

`Cc1cnc2[nH]cc(Cc3ccc(Nc4ccc(C)nc4)nc3F)c2c1` [Compound P-3041, [6-Fluoro-5-(5-methyl-1H-pyrrolo[2,3-b]pyridin-3-ylmethyl)-pyridin-2-yl]-(6-methyl-pyridin-3-yl)-amine]: the IC50 on Fms kinase is under 0.01 µM; at CYP2D6, over 10 µM.

Take `Cc1cnc2[nH]cc(C(=O)c3ccc(Nc4ccc(C)nc4)nc3F)c2c1` [Compound P-3043, [2-Fluoro-6-(6-methyl-pyridin-3-ylamino)-pyridin-3-yl]-(5-methyl-1H-pyrrolo[2,3-b]pyridin-3-yl)-methanone]: the IC50 at Fms kinase is under 0.01 µM; at CYP2D6, over 10 µM.

With `Cc1ccc(Nc2ccc(C(=O)c3c[nH]c4ncc(Cl)cc34)c(F)n2)cn1` [Compound P-3044, (5-Chloro-1H-pyrrolo[2,3-b]pyridin-3-yl)-[2-fluoro-6-(6-methyl-pyridin-3-ylamino)-pyridin-3-yl]-methanone], the IC50 on Fms kinase is under 0.01 µM; at CYP2D6 it was over 10 µM.

With `CCc1ccc(Nc2ccc(Cc3c[nH]c4ncc(C)cc34)c(F)n2)cn1` [Compound P-3048, (6-Ethyl-pyridin-3-yl)-[6-fluoro-5-(5-methyl-1H-pyrrolo[2,3-b]pyridin-3-ylmethyl)-pyridin-2-yl]-amine], the IC50 is under 0.01 µM at Fms kinase and over 10 µM on CYP2D6.

As to `CCc1ccc(Nc2ccc(C(=O)c3c[nH]c4ncc(C)cc34)c(F)n2)cn1` [Compound P-3049, [6-(6-Ethyl-pyridin-3-ylamino)-2-fluoro-pyridin-3-yl]-(5-methyl-1H-pyrrolo[2,3-b]pyridin-3-yl)-methanone], the IC50 was under 0.01 µM at Fms kinase and over 10 µM at CYP2D6.

Consider `Cc1cnc2[nH]cc(Cc3ccc(Nc4ccc(C5CC5)nc4)nc3F)c2c1` [Compound P-3050, (6-Cyclopropyl-pyridin-3-yl)-[6-fluoro-5-(5-methyl-1H-pyrrolo[2,3-b]pyridin-3-ylmethyl)-pyridin-2-yl]-amine], for which the figures for the IC50 on Fms kinase and on CYP2D6 were under 0.1 µM and over 10 µM, respectively.

In the case of `Cc1cnc2[nH]cc(C(=O)c3ccc(Nc4ccc(C5CC5)nc4)nc3F)c2c1` [Compound P-3051, [6-(6-Cyclopropyl-pyridin-3-ylamino)-2-fluoro-pyridin-3-yl]-(5-methyl-1H-pyrrolo[2,3-b]pyridin-3-yl)-methanone], the IC50 at Fms kinase was under 0.01 µM; at CYP2D6 it was over 10 µM.

Consider `O=C(c1ccc(Nc2ccc(C3CC3)nc2)nc1F)c1c[nH]c2ncccc12` [Compound P-3052, [6-(6-Cyclopropyl-pyridin-3-ylamino)-2-fluoro-pyridin-3-yl]-(1H-pyrrolo[2,3-b]pyridin-3-yl)-methanone], for which the IC50 is under 0.1 µM on Fms kinase and over 10 µM on CYP2D6.

In the case of `Fc1nc(Nc2ccc(C3CC3)nc2)ccc1Cc1c[nH]c2ncccc12` [Compound P-3053, (6-Cyclopropyl-pyridin-3-yl)-[6-fluoro-5-(1H-pyrrolo[2,3-b]pyridin-3-ylmethyl)-pyridin-2-yl]-amine], the figures for the IC50 on Fms kinase and at CYP2D6 were under 0.01 µM and over 10 µM, respectively.

Turning to `COc1ccc(Nc2ccc(Cc3c[nH]c4ncnc(OC)c34)c(F)n2)cn1` [Compound P-4001, [6-Fluoro-5-(4-methoxy-7H-pyrrolo[2,3-d]pyrimidin-5-ylmethyl)-pyridin-2-yl]-(6-methoxy-pyridin-3-yl)-amine], the IC50 is under 0.01 µM on Fms kinase and over 10 µM on CYP2D6.

Turning to `COc1ccc(Nc2ccc(Cc3c[nH]c4ncnc(C)c34)c(F)n2)cn1` [Compound P-4002, [6-Fluoro-5-(4-methyl-7H-pyrrolo[2,3-d]pyrimidin-5-ylmethyl)-pyridin-2-yl]-(6-methoxy-pyridin-3-yl)-amine], the IC50 at Fms kinase is under 0.1 µM; at CYP2D6, over 10 µM.

Take `COc1ncnc2[nH]cc(Cc3ccc(Nc4ccc(Cl)nc4)nc3F)c12` [Compound P-4003, (6-Chloro-pyridin-3-yl)-[6-fluoro-5-(4-methoxy-7H-pyrrolo[2,3-d]pyrimidin-5-ylmethyl)-pyridin-2-yl]-amine]: the half-inhibitory concentration (IC50) on Fms kinase is under 0.1 µM; on CYP2D6 it was over 10 µM.

In the case of `COc1ncnc2[nH]cc(Cc3ccc(Nc4ccc(C5CC5)nc4)nc3F)c12` [Compound P-4004, (6-Cyclopropyl-pyridin-3-yl)-[6-fluoro-5-(4-methoxy-7H-pyrrolo[2,3-d]pyrimidin-5-ylmethyl)-pyridin-2-yl]-amine], the IC50 at Fms kinase was under 0.1 µM; on CYP2D6 it was over 10 µM.

Turning to `CCOc1ccc(Nc2ccc(Cc3c[nH]c4ncnc(OC)c34)c(F)n2)cn1` [Compound P-4005, (6-Ethoxy-pyridin-3-yl)-[6-fluoro-5-(4-methoxy-7H-pyrrolo[2,3-d]pyrimidin-5-ylmethyl)-pyridin-2-yl]-amine], the IC50 at Fms kinase is under 0.01 µM; at CYP2D6, over 10 µM.

As to `CCOc1ccc(Nc2ccc(Cc3c[nH]c4ncnc(C)c34)c(F)n2)cn1` [Compound P-4006, (6-Ethoxy-pyridin-3-yl)-[6-fluoro-5-(4-methyl-7H-pyrrolo[2,3-d]pyrimidin-5-ylmethyl)-pyridin-2-yl]-amine], the IC50 is under 0.01 µM at Fms kinase and over 10 µM at CYP2D6.

In the case of `CCc1ccc(Nc2ccc(Cc3c[nH]c4ncnc(OC)c34)c(F)n2)cn1` [Compound P-4007, (6-Ethyl-pyridin-3-yl)-[6-fluoro-5-(4-methoxy-7H-pyrrolo[2,3-d]pyrimidin-5-ylmethyl)-pyridin-2-yl]-amine], the values for the IC50 on Fms kinase and at CYP2D6 were under 0.01 µM and over 10 µM, respectively.

Take `CCOc1ccc(Nc2ccc(Cc3c[nH]c4ncnc(OCCOC)c34)c(F)n2)cn1` [Compound P-4008, (6-Ethoxy-pyridin-3-yl)-{6-fluoro-5-[4-(2-methoxy-ethoxy)-7H-pyrrolo[2,3-d]pyrimidin-5-ylmethyl]-pyridin-2-yl}-amine]: the results for the IC50 at Fms kinase and at CYP2D6 were under 0.01 µM and over 10 µM, respectively.

Take `CCOc1ncnc2[nH]cc(Cc3ccc(Nc4cccnc4)nc3F)c12` [Compound P-4021, [5-(4-Ethoxy-7H-pyrrolo[2,3-d]pyrimidin-5-ylmethyl)-6-fluoro-pyridin-2-yl]-pyridin-3-yl-amine]: the IC50 at Fms kinase is under 0.1 µM.

`CCOc1ccc(Nc2ccc(Cc3c[nH]c4ncnc(C5CC5)c34)c(F)n2)cn1` [Compound P-4026, [5-(4-Cyclopropyl-7H-pyrrolo[2,3-d]pyrimidin-5-ylmethyl)-6-fluoro-pyridin-2-yl]-(6-ethoxy-pyridin-3-yl)-amine]: the IC50 at Fms kinase was under 0.01 µM.

Regarding `CCOc1ccc(Nc2ccc(C(=O)c3c[nH]c4ncnc(C5CC5)c34)c(F)n2)cn1` [Compound P-4027, (4-Cyclopropyl-7H-pyrrolo[2,3-d]pyrimidin-5-yl)-[6-(6-ethoxy-pyridin-3-ylamino)-2-fluoro-pyridin-3-yl]-methanone], at Fms kinase, the IC50 was under 0.1 µM.

In the case of `CCOc1ccc(Nc2ccc(C(=O)c3c[nH]c4ncnc(C)c34)c(F)n2)cn1` [Compound P-4032, [6-(6-Ethoxy-pyridin-3-ylamino)-2-fluoro-pyridin-3-yl]-(4-methyl-7H-pyrrolo[2,3-d]pyrimidin-5-yl)-methanone], the IC50 on Fms kinase is under 0.1 µM.

As to `Cc1cncc(Nc2ccc(Cc3c[nH]c4ncnc(C5CC5)c34)c(F)n2)c1` [Compound P-4038, [5-(4-Cyclopropyl-7H-pyrrolo[2,3-d]pyrimidin-5-ylmethyl)-6-fluoro-pyridin-2-yl]-(5-methyl-pyridin-3-yl)-amine], the IC50 on Fms kinase is under 0.1 µM.

As to `Cc1cncc(Nc2ccc(C(=O)c3c[nH]c4ncnc(C5CC5)c34)c(F)n2)c1` [Compound P-4039, (4-Cyclopropyl-7H-pyrrolo[2,3-d]pyrimidin-5-yl)-[2-fluoro-6-(5-methyl-pyridin-3-ylamino)-pyridin-3-yl]-methanone], the IC50 at Fms kinase was under 1 µM.

One may read the IC50 as the concentration at which inhibition is half-maximal.

These data come from patent US8901118B2, “Compounds and methods for kinase modulation, and indications therefor” (Plexxikon Inc., priority 2010, dated 2014).
